Results from article PMC7582905, “Effect of Disulfide Cyclization of Ultrashort Cationic Lipopeptides on Antimicrobial Activity and Cytotoxicity” (International Journal of Molecular Sciences, 2020).
≈ marks a conversion by molar mass, not a printed value. Where a SMILES comes first, the peptide text is derived from it. Bridges are numbered along the chain shown (N, C = ends). The star is where a group is joined. Palmitoyl = CCCCCCCCCCCCCCCC(=O)*

How the values were obtained:
[1] = test system: Candida tropicalis PCM 2709-FY; assay type: cell-based; conditions: PCM 2709-FY, 24 h
Description: (§1) The Staphylococcus aureus ATCC 25923, Staphylococcus epidermidis ATCC 14990, Escherichia coli ATCC 25922, Pseudomonas aeruginosa ATCC 9027, Candida albicans ATCC 10231, Candida glabrata ATCC 15126, Candida lipolytica PCM 2680-FY, and Candida tropicalis PCM 2709-FY strains were acquired from the Polish Collection of Microorganisms (PCM, Polish Academy of Sciences, Wrocław, Poland) and from the American Type Culture Collection (ATCC). All the strains were stored at −80 °C in Roti-Store cryo vials and before the tests were transferred into fresh Mueller–Hinton broth (MHB, Biocorp, Warsaw, Poland) for bacteria or RPMI-1640 (Sigma-Aldrich, Steinheim, Germany) for fungi and incubated for 24 h at 37 °C. Then, the cultures were seeded on Mueller–Hinton agar (BioMaxima, Lublin, Poland) or Sabouraud dextrose agar (SDA, BioMaxima, Lublin, Poland) plates, respectively, and incubated as just mentioned. These agar cultures were used for further microbiological assays. Cell densities for all assays were adjusted spectrophotometrically (Multiskan GO Microplate Spectrophotometer, Thermo Fisher Scientific, Vantaa, Finland) at 600 and 660 nm for bacteria and fungi, respectively.
(§2) MBECs were determined on 96-well polystyrene flat-bottom plates. For this purpose, 24 h cultures of microorganisms were diluted to obtain final density 5.0 × 10^5 CFU/mL and 2.0 × 10^5 CFU/mL of bacteria and fungi, respectively. Briefly, 100 µL of cell suspension was added into the test plates. After 24 h of incubation at 37 °C the wells were rinsed three times with a phosphate buffer saline (PBS, pH 7.4) to remove non-adherent cells. Subsequently, 100 μL of the test compounds in concentration range (0.5–256 μg/mL) were added to each well. After 24 h of incubation at 37 °C, 20 μL of a cell viability reagent was added (resazurin, 4 g/L; Sigma Aldrich, St. Louis, MO, USA). The MBEC was read after 1 h. The determined values were recorded as the lowest concentration at which the reduction of resazurin (from blue to pink) was lower or equal to 10 ± 0.5% as compared to the positive (100%) and negative (0%) controls. The reduction was monitored by measuring absorbance at 570 nm (reduced) and 600 nm (oxidized) using a microplate spectrophotometer (Multiskan GO Microplate Spectrophotometer, Thermo Fisher Scientific, Vantaa, Finland). All experiments were conducted in triplicate.

[2] = test system: Candida lipolytica PCM 2680-FY; assay type: cell-based; conditions: 24 h
Description: as §1, §2

[3] = test system: Candida albicans ATCC 10231; assay type: cell-based; conditions: ATCC 10231, 24 h
Description: as §1, §2

[4] = test system: Escherichia coli ATCC 25922; assay type: cell-based; conditions: ATCC 25922, 24 h
Description: as §1, §2

[5] = test system: Pseudomonas aeruginosa ATCC 9027; assay type: cell-based; conditions: ATCC 9027, 24 h
Description: as §1, §2

[6] = test system: Staphylococcus epidermidis ATCC 14990; assay type: cell-based; conditions: ATCC 14990, 24 h
Description: as §1, §2

[7] = test system: Candida glabrata ATCC 15126; assay type: cell-based; conditions: ATCC 15126, 24 h
Description: as §1, §2

[8] = test system: Candida lipolytica PCM 2680-FY; assay type: cell-based; conditions: 24 h; remark: listed apart in the source
Description: as §1
(§3) The MICs were determined by broth microdilution method according to the Clinical and Laboratory Standard Institute guidelines For this purpose, initial inoculums of bacteria (5 × 10^5 CFU/mL) in MHB and yeasts (2 × 10^3 CFU/mL) in RPMI-1640 with 2% D-glucose were exposed to the ranging concentration of lipopeptides (0.5–256 μg/mL) and incubated at 37 °C for 18 h and 24 h, respectively. The experiments were conducted on 96-well microtiter polystyrene plates. The growth was assessed visually after incubation and the MIC was assumed as the lowest peptide concentration at which a noticeable growth of microorganisms was inhibited. All experiments were conducted in triplicate.

[9] = test system: Escherichia coli ATCC 25922; assay type: cell-based; conditions: ATCC 25922, 18 h
Description: as §1, §3

[10] = test system: Pseudomonas aeruginosa ATCC 9027; assay type: cell-based; conditions: ATCC 9027, 18 h
Description: as §1, §3

[11] = test system: Candida glabrata ATCC 15126; assay type: cell-based; conditions: ATCC 15126, 24 h; remark: listed apart in the source
Description: as §1, §3

[12] = RP-HPLC determination of peptide hydrophobicity; assay type: physicochemical; conditions: 0.1% TFA; for reduced retention time t’R: RP-HPLC retention as measure of hydrophobicity, Waters X-Bridge Shield RP-18 3.0 × 100 mm, 3.5 μm, linear 20–65% acetonitrile in water over 30 min, 0.5 mL/min, 25.0 °C, UV 214 nm, 1 g/L, triplicate; for ∆tR: tR of cyclic analog − tR of parent lipopeptide, RP-HPLC, RP-18, 20–65% acetonitrile over 30 min
Description: The peptides were analyzed by RP-HPLC to determine relative hydrophobicity vs. retention time of each compound. In general, more hydrophobic lipopeptides will elute later than hydrophilic ones. Using this simple rule enables comparison of hydrophobicity by reduced retention times (t’R) and differences in retention time between the cyclic analog and its linear parent lipopeptide (Table 1). It can be deduced that the presence of cystine moiety has led to increased hydrophobicity. All cyclic lipopeptides are more hydrophobic than their linear counterparts but the effect of disulfide cyclization on retention is different in each pair. The highest increase in retention was noticed for the shortest lipopeptides L1 (C16-KKK-NH2) and C1 (C16-CKKKC-NH2). The differences between lipopeptides with one arginine residue indicate that its position is crucial for retention and therefore hydrophobicity. To learn how the arginine position affects hydrophobicity, the retention time of compound L2 (C16-KKKK-NH2) or C2 (C16-CKKKKC-NH2) was subtracted from that of the lipopeptides with one arginine residue, linear (L3, L4, L5, L6) or cyclic (C3, C4, C5, C6), respectively. In Figure 2 the effect of arginine position on retention time is related to unsubstituted lipopeptide.
To determine peptide hydrophobicity, a Waters Alliance e2695 system with a Waters 2998 PDA Detector (software-Empower 3, Waters, Milford, MA, USA) was used. All analyses were carried out on a Waters X-Bridge Shield RP-18 column (3.0 × 100 mm, 3.5 μm particle size, 130 Å pore size). The Shield Technology column with embedded polar groups was used to minimize interactions of unreacted silanol groups with basic lipopeptides. The peptides were dissolved in water (0.1% TFA, v/v) up to a concentration of 1 g/L. UV detection at 214 nm was used, and samples (10 μL) were eluted with a linear 20–65% acetonitrile gradient in deionized water over 30 min at 25.0 ± 0.1 °C. The mobile phase flow rate was 0.5 mL/min. Both eluents contained 0.1% (v/v) of TFA. Each peptide sample was analyzed in triplicate. Maximum standard deviation and coefficient of variation were 0.042 and 0.25%, respectively.

CCCCCCCCCCCCCCCC(=O)N[C@@H](CCCCN)C(=O)N[C@@H](CCCCN)C(=O)N[C@@H](CCCCN)C(N)=O [L1, C16-KKK-NH2]
MBEC C. tropicalis [1]: 128 µg/mL
MBEC C. lipolytica [2]: 64 µg/mL
MBEC C. albicans [3]: 256 µg/mL
MBEC E. coli [4]: 64 µg/mL
MBEC P. aeruginosa [5]: 128 µg/mL
MBEC S. epidermidis [6]: 32 µg/mL
MBEC C. glabrata [7]: 256 µg/mL
MIC C. lipolytica [8]: 16 µg/mL (≈ 25 µM)
MIC E. coli [9]: 16 µg/mL (≈ 25 µM)
MIC P. aeruginosa [10]: 64 µg/mL (≈ 100 µM)
MIC C. glabrata [11]: 32 µg/mL (≈ 50 µM)
reduced retention time t’R [12]: 16.14 min

CCCCCCCCCCCCCCCC(=O)N[C@H]1CSSC[C@@H](C(N)=O)NC(=O)[C@H](CCCCN)NC(=O)[C@H](CCCCN)NC(=O)[C@H](CCCNC(=N)N)NC(=O)[C@H](CCCCN)NC1=O [C4, C16-CKRKKC-NH2] (Palmitoyl-CKRKKC-NH2; disulfide 1-6)
MBEC C. tropicalis [1]: 32 µg/mL
MBEC C. lipolytica [2]: 16 µg/mL
MBEC C. albicans [3]: 32 µg/mL
MBEC E. coli [4]: 64 µg/mL
MBEC P. aeruginosa [5]: >256 µg/mL
MBEC S. epidermidis [6]: 32 µg/mL
MBEC C. glabrata [7]: 64 µg/mL
MIC C. lipolytica [8]: 1 µg/mL (≈ 1 µM)
MIC E. coli [9]: 32 µg/mL (≈ 32 µM)
MIC P. aeruginosa [10]: 256 µg/mL (≈ 256 µM)
MIC C. glabrata [11]: 4 µg/mL (≈ 4 µM)
reduced retention time t’R [12]: 16.10 min
∆tR [12]: +0.92 min

CCCCCCCCCCCCCCCC(=O)N[C@@H](CCCNC(=N)N)C(=O)N[C@@H](CCCNC(=N)N)C(=O)N[C@@H](CCCCN)C(=O)N[C@@H](CCCCN)C(N)=O [L7, C16-RRKK-NH2] (Palmitoyl-RRKK-NH2)
MBEC C. tropicalis [1]: 64 µg/mL
MBEC C. lipolytica [2]: 16 µg/mL
MBEC C. albicans [3]: 64 µg/mL
MBEC E. coli [4]: 256 µg/mL
MBEC P. aeruginosa [5]: 256 µg/mL
MBEC S. epidermidis [6]: 64 µg/mL
MBEC C. glabrata [7]: 128 µg/mL
MIC C. lipolytica [8]: 8 µg/mL (≈ 9.71 µM)
MIC E. coli [9]: 8 µg/mL (≈ 9.71 µM)
MIC P. aeruginosa [10]: 64 µg/mL (≈ 77.7 µM)
MIC C. glabrata [11]: 16 µg/mL (≈ 19.4 µM)
reduced retention time t’R [12]: 15.58 min

CCCCCCCCCCCCCCCC(=O)N[C@H]1CSSC[C@@H](C(N)=O)NC(=O)[C@H](CCCNC(=N)N)NC(=O)[C@H](CCCCN)NC(=O)[C@H](CCCCN)NC(=O)[C@H](CCCCN)NC1=O [C6, C16-CKKKRC-NH2] (Palmitoyl-CKKKRC-NH2; disulfide 1-6)
MBEC C. tropicalis [1]: 32 µg/mL
MBEC C. lipolytica [2]: 16 µg/mL
MBEC C. albicans [3]: 64 µg/mL
MBEC E. coli [4]: >256 µg/mL
MBEC P. aeruginosa [5]: >256 µg/mL
MBEC S. epidermidis [6]: 128 µg/mL
MBEC C. glabrata [7]: 64 µg/mL
MIC C. lipolytica [8]: 2 µg/mL (≈ 2 µM)
MIC E. coli [9]: 32 µg/mL (≈ 32 µM)
MIC P. aeruginosa [10]: 128 µg/mL (≈ 128 µM)
MIC C. glabrata [11]: 4 µg/mL (≈ 4 µM)
reduced retention time t’R [12]: 16.32 min
∆tR [12]: +1.43 min

CCCCCCCCCCCCCCCC(=O)N[C@@H](CCCCN)C(=O)N[C@@H](CCCCN)C(=O)N[C@@H](CCCCN)C(=O)N[C@@H](CCCCN)C(N)=O [L2, C16-KKKK-NH2] (Palmitoyl-KKKK-NH2)
MBEC C. tropicalis [1]: 128 µg/mL
MBEC C. lipolytica [2]: 64 µg/mL
MBEC C. albicans [3]: 256 µg/mL
MBEC E. coli [4]: 64 µg/mL
MBEC P. aeruginosa [5]: >256 µg/mL
MBEC S. epidermidis [6]: 32 µg/mL
MBEC C. glabrata [7]: 256 µg/mL
MIC C. lipolytica [8]: 8 µg/mL (≈ 10.4 µM)
MIC E. coli [9]: 32 µg/mL (≈ 41.7 µM)
MIC P. aeruginosa [10]: 16 µg/mL (≈ 20.8 µM)
MIC C. glabrata [11]: 64 µg/mL (≈ 83.3 µM)
reduced retention time t’R [12]: 14.77 min

CCCCCCCCCCCCCCCC(=O)N[C@H]1CSSC[C@@H](C(N)=O)NC(=O)[C@H](CCCCN)NC(=O)[C@H](CCCCN)NC(=O)[C@H](CCCCN)NC(=O)[C@H](CCCNC(=N)N)NC1=O [C3, C16-CRKKKC-NH2] (Palmitoyl-CRKKKC-NH2; disulfide 1-6)
MBEC C. tropicalis [1]: 32 µg/mL
MBEC C. lipolytica [2]: 16 µg/mL
MBEC C. albicans [3]: 32 µg/mL
MBEC E. coli [4]: 256 µg/mL
MBEC P. aeruginosa [5]: 256 µg/mL
MBEC S. epidermidis [6]: 128 µg/mL
MBEC C. glabrata [7]: 32 µg/mL
MIC C. lipolytica [8]: 4 µg/mL (≈ 4 µM)
MIC E. coli [9]: 16 µg/mL (≈ 16 µM)
MIC C. glabrata [11]: 8 µg/mL (≈ 8 µM)
reduced retention time t’R [12]: 16.51 min
∆tR [12]: +1.30 min
